In US20110098284A1, “Methods and compositions for treating pain” (priority 2005, published 2011):
Where two headings read alike, the source gives them in different places.

How the values were obtained:
[1] = CABG study, cited from earlier work
[2] = vs. 0% placebo; P=0.03; cited from earlier work
[3] = cited from earlier work; for incidence of injection site pain: diclofenac 75 mg or ketorolac 30 mg IM (Morrow)
[4] = cited from earlier work
[5] = stored for 12 weeks at 5° C., 25° C./60% RH, 30° C./60% RH, 40° C./75% RH; for original NSAID content on storage: stability indicating HPLC; for visible signs of crystallization, deviation in pH and osmolarity on storage: vials or ampoules sealed under nitrogen
[6] = system: marginal vein of each ear; experiment: Histopathological evaluation of injection sites (Example 11); format: in vivo, New Zealand White rabbits
Protocol: Injection sites underwent histopathological evaluation.
Thrombosis was recorded for amorphous aggregates of fibrin like material within vascular lumens and variably adherent to vessel walls.

[7] = system: marginal vein of each ear; settings: for edema at injection site / erythema at injection site: 24 hour observation
[8] = 1 mg/kg over 10 min as solution of 25 mg/mL (Campbell and Watters)
[9] = IV using a diluted infusion (Campbell and Watters)
[10] = Treatment A, 5 mg/0.1 mL IV over one minute
[11] = Treatment B, 15 mg/0.3 mL IV over one minute

For CCC(=O)NS(=O)(=O)c1ccc(-c2c(-c3ccccc3)noc2C)cc1 [parecoxib], the deaths ([1]; vs. 0 placebo) is given as 4, the cerebrovascular events ([1]; vs. 0.7% placebo) is given as 2.6% and the “incidence of myocardial infarctions” value ([1]; vs. 0.7% placebo) is given as 1.9%. The sternal wound infections [2] was 3.2%.

For O=C(c1ccccc1)c1ccc2n1CCC2C(=O)O (stereo not drawn) [ketorolac], the “incidence of injection site pain” value [3] is listed as 3%.

For O=C(O)Cc1ccccc1Nc1c(Cl)cccc1Cl [diclofenac, 2-(2,6-dichlorophenylamino)benzeneacetic acid], the “patients who developed phlebitis” value ([4]; 1 mg/kg in 100 mL saline every 12 hours x 2 doses, maxillofacial surgery (Tarkkila)) is given as 10%, the “incidence of phlebitis, arm” value [4, 8] is given as 58% and the “incidence of phlebitis, hand” value [4, 8] is given as 85%. The “incidence of thrombosis, arm veins” value [4, 9] was 8%, the “incidence of thrombosis, hand veins” value [4, 9] was 38% and the “patients who developed phlebitis” value ([4]; after hip replacement surgery, diclofenac 75 mg IV over 30 minutes then 75 mg/15.5 hours, ketoprofen 100 mg over 30 min then 100 mg/15.5 hours (Kostamovaara)) was 14%. For the same compound, the “patients who experienced phlebitis” value ([4]; after major orthopedic surgery, 0.35 mg/kg IV then 0.90 mcg/min continuous infusion, 6 hours after start (Claeys)) was 5%, the “time of (delayed) venous thrombosis” value ([4]; diluted in 100 to 200 mL, infused over 15 to 20 minutes (Gopinath)) was over 72 h and the “cases of severe local reactions” value ([3]; IM (Pillans and O'Connor)) was “six”. For the same compound, the patients who died ([3]; IM (Pillans and O'Connor)) was “Two of the six”, the “patients with extensive tissue necrosis at the IM injection site” value ([3]; IM (Pillans and O'Connor)) was “Three” and the “patients with necrotizing fasciitis” value ([3]; IM (Pillans and O'Connor)) was “three”. For the same compound, the “share of all accepted claims for injection related complications” value ([3]; IM administration, New Zealand 1992 to 2003) was 22.6% and the “incidence of injection site pain” value [3] was 31%.

For CN1C(C(=O)Nc2ccccn2)=C(O)c2ccccc2S1(=O)=O.NCCN [piroxicam-ethylenediamine], the “original NSAID content on storage” value [5] was 100%±5%, the “visible signs of crystallization, deviation in pH and osmolarity on storage” value [5] was “no visible signs of crystallization or significant deviation in pH and osmolarity” and the “incidence of inflammatory cell infiltrates” value ([6]; rabbit, in vivo) was “low”. The “mean intensity (severity) of edema and infiltrates” value ([6]; rabbit, in vivo) was “none to negligible”.

With CN1C(C(=O)Nc2ccccn2)=C(O)c2sccc2S1(=O)=O.CN1C(C(=O)Nc2ccccn2)=C(O)c2sccc2S1(=O)=O.NCCN [tenoxicam ethylenediamine] the “original NSAID content on storage” value [5] was 100%±5% and the “visible signs of crystallization, deviation in pH and osmolarity on storage” value [5] was “no visible signs of crystallization or significant deviation in pH and osmolarity”.

For CC(C(=O)O)c1cccc(C(=O)c2ccccc2)c1 (racemic) [Ketoprofen, (±)-2-(3-benzoylphenyl)propionic acid], the “irritation in the ear veins” value ([7]; Treatment A, 5 mg/0.1 mL IV) was “produced irritation”, the “edema at injection site” value [7, 10] was “slight” and the “erythema at injection site” value [7, 10] was “well defined”. The “irritation in the ear veins” value ([7]; Treatment B, 15 mg/0.3 mL IV) was “produced irritation”, the “edema at injection site” value [7, 11] was “very slight” and the “erythema at injection site” value [7, 11] was “very slight to moderate to severe”.

In the case of CN1C(C(=O)Nc2ccccn2)=C(O)c2ccccc2S1(=O)=O [unsalified piroxicam, 4-hydroxy-2-methyl-N-2-pyridinyl-2H-1,2-benzothiazine-3-carboxamide-1,1-dioxide], the “incidence of inflammatory cell infiltrates” value ([6]; at the end of needle progression and 1 cm away from the end of progression) is reported as “intermediate” and the “mean intensity (severity) of edema and infiltrates” value ([6]; injection site histopathology) is reported as “intermediate”.
